The assay deals with T1, human V1b receptors (Homo sapiens, UniProt P47901).
T1 construct: expressed in transfected cells
T1 sequence (P47901 1-424): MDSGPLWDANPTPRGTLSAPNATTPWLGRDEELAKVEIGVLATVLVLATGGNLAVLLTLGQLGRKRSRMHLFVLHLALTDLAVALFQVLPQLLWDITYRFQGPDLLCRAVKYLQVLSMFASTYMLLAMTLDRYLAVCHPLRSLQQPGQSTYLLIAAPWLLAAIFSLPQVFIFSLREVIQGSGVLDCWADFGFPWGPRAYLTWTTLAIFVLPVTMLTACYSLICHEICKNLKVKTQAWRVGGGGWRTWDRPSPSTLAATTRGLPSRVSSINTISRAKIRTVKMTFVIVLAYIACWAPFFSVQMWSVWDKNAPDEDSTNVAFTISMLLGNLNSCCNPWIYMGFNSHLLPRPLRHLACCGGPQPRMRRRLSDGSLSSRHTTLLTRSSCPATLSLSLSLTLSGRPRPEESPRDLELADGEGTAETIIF
The experiment in a line: Vasopressin V1b receptor binding assay. As to the method: Vasopressin V1b Receptor Binding Assay:
These DMSO solutions were diluted 1:10 with assay buffer. The substance concentration was further diluted 1:10 in the assay mixture.
The nonspecific binding was determined with 10^−6 M AVP. Determinations in triplicate were carried out.
The affinities for the human vasopressin V1b receptor were measured, and affinity constants determined, in the above assay for the inventive examples.
The affinities of the compounds (I) of the invention for the human vasopressin V1b receptor were measured in accordance with the above assays, and the affinity constants (Ki) were determined. Table 1 below details the V1b receptor affinity of selected compounds (+++ means <10 nM and ++ means 10-100 nM).

The mark [1] stands for this setting: Table 1, human vasopressin V1b receptor affinity, read-out: V1b Ki.
Setting [2] is: membranes from CHO-K1 cells, 3H-AVP displacement, read-out: measured Ki values, affinities for the vasopressin V1b receptor.

Read-outs that look alike come from different tables or passages of the source.

As usually defined, the Ki is a measure of affinity in units of concentration, obtained from inhibition or displacement. In the case of `CCOc1ccccc1C1(OC(=O)N2CCN(c3nccs3)CC2)C(=O)N(S(=O)(=O)c2ccccc2OC)c2ccc(C#N)cc21` (centres unmarked) [Example 4, 5-Cyano-1-(2-methoxybenzenesulfonyl)-3-(2-ethoxyphenyl)-2-oxo-2,3-dihydro-1H-indol-3-yl 4-(thiazol-2-yl)piperazine-1-carboxylate], the inhibitory constant (Ki) was less than 10 nM under setting [1] and less than 100 nM under setting [2].

Consider `CCOc1ccccc1C1(NC(=O)N2CCN(c3ccncc3)CC2)C(=O)N(S(=O)(=O)c2ccc(F)cc2F)c2ccc(C#N)cc21` (centres unmarked) [Example 13, 4-(Pyridin-4-yl)piperazine-1-[1-(2,4-difluorobenzenesulfonyl)-5-cyano-2-oxo-3-(2-ethoxyphenyl)-2,3-dihydro-1H-indol-3-yl]carboxamide], for which the inhibitory constant (Ki) under setting [1] was 10 to 100 nM and the Ki under setting [2] was less than 100 nM.

As to `CCOc1ccccc1C1(OC(=O)N2CCN(c3nccs3)CC2)C(=O)N(S(=O)(=O)c2ccc(OC)cc2OC)c2ccc(C#N)cc21` (centres unmarked) [Example 30, 1-(2,4-Dimethoxybenzenesulfonyl)-5-cyano-2-oxo-3-(2-ethoxyphenyl)-2,3-dihydro-1H-indol-3-yl 4-(thiazol-2-yl)piperazine-1-carboxylate], the Ki is, setting by setting: under setting [1], less than 10 nM; under setting [2], less than 100 nM.

For the molecule `CCOc1ccccc1C1(NC(=O)N2CCN(c3ccc(C#N)cn3)CC2)C(=O)N(S(=O)(=O)c2ccc(OC)cc2OC)c2ccc(C#N)cc21` (centres unmarked) [Example 33, 4-(5-Cyanopyridin-2-yl)piperazine-1-[1-(2,4-dimethoxybenzenesulfonyl)-5-cyano-2-oxo-3-(2-ethoxyphenyl)-2,3-dihydro-1H-indol-3-yl]carboxamide], the inhibition constant Ki under setting [1] is less than 10 nM and the Ki under setting [2] is less than 100 nM.

In the case of `CCOc1ccccc1C1(OC(=O)N2CCN(c3ccncc3)CC2)C(=O)N(S(=O)(=O)c2ccc(OC)cc2OC)c2ccc(C#N)cc21` (centres unmarked) [Example 3, 5-Cyano-1-(2,4-dimethoxybenzenesulfonyl)-3-(2-ethoxyphenyl)-2-oxo-2,3-dihydro-1H-indol-3-yl 4-(pyridin-4-yl)piperazine-1-carboxylate], the inhibition constant (Ki) runs as follows: under setting [1], less than 10 nM; under setting [2], less than 100 nM.

Regarding `CCOc1ccccc1C1(OC(=O)N2CCN(c3ccncc3)CC2)C(=O)N(S(=O)(=O)c2ccc(C)cc2OC)c2ccc(C#N)cc21` (centres unmarked) [Example 20], the inhibition constant (Ki) reads like this: under setting [1], less than 10 nM; under setting [2], less than 100 nM.

`CCOc1ccccc1C1(OC(=O)N2CCN(c3ccncc3)CC2)C(=O)N(S(=O)(=O)c2ccccc2F)c2ccc(C#N)cc21` (centres unmarked) [Example 8, 5-Cyano-1-(2-fluorobenzenesulfonyl)-3-(2-ethoxyphenyl)-2-oxo-2,3-dihydro-1H-indol-3-yl 4-(pyridin-4-yl)piperazine-1-carboxylate]: the Ki runs as follows: under setting [1], 10 to 100 nM; under setting [2], less than 100 nM.

On to `CCOc1ccccc1C1(OC(=O)N2CCN(c3cnccn3)CC2)C(=O)N(S(=O)(=O)c2ccc(OC)cc2OC)c2ccc(C#N)cc21` (centres unmarked) [Example 29, 1-(2,4-Dimethoxybenzenesulfonyl)-5-cyano-2-oxo-3-(2-ethoxyphenyl)-2,3-dihydro-1H-indol-3-yl 4-(pyrazin-2-yl)piperazine-1-carboxylate], for which the Ki is, setting by setting: under setting [1], 10 to 100 nM; under setting [2], less than 100 nM.

As to `CCOc1ccccc1C1(OC(=O)N2CCN(c3ccncc3)CC2)C(=O)N(S(=O)(=O)c2ccc(F)cc2)c2ccc(C#N)cc21` (centres unmarked) [Example 21, 1-(4-Fluorobenzenesulfonyl)-5-cyano-2-oxo-3-(2-ethoxyphenyl)-2,3-dihydro-1H-indol-3-yl 4-(pyridin-4-yl)piperazine-1-carboxylate], the Ki reads like this: under setting [1], 10 to 100 nM; under setting [2], less than 100 nM.

`CCOc1ccccc1C1(OC(=O)N2CCN(c3ccncc3)CC2)C(=O)N(S(=O)(=O)c2ccc([N+](=O)[O-])cc2)c2ccc(C#N)cc21` (centres unmarked) [Example 19, 1-(4-Nitrobenzenesulfonyl)-5-cyano-2-oxo-3-(2-ethoxyphenyl)-2,3-dihydro-1H-indol-3-yl 4-(pyridin-4-yl)piperazine-1-carboxylate]: the inhibition constant Ki by setting is: under setting [1], less than 10 nM; under setting [2], less than 100 nM.

The values are drawn from patent publication US8129389B2, “Substituted oxindole derivatives, medicaments containing the latter and use thereof” (Abbott GmbH & Co. KG, priority 2005, dated 2012).
